Test results published in PubChem BioAssay AID330 (DTP/NCI, 2004).
Values joined by “and” are separate entries in the source; they are usually repeats but may differ in a detail not shown here. Identical values can stand only once. Toxic doses and inconclusive results are not listed. Rule for the calls: active = survival T/C of 150% or more; inactive = T/C below 125% in these data.

Test system: P388 leukemia ip, CD2F1 mice, survival T/C
Experiment: NCI In Vivo Anticancer Drug Screen. Data for tumor model P388 Leukemia (intraperitoneal) in CD2F1 (CDF1) mice
Details: endpoint: median survival time, higher = longer survival
How it was run: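 Mice carrying the transplanted tumor received test compound or vehicle. Survival was recorded in each group, and the value is the treated-group measurement divided by that of the vehicle-treated control group.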

[1] = dose: 100.0 mg/kg/injection, schedule: Q04DX003 (ip), vehicle: saline with Tween-80
[2] = dose: 200.0 mg/kg/injection, schedule: Q04DX003 (ip), vehicle: saline with Tween-80
[3] = dose: 400.0 mg/kg/injection, schedule: Q04DX003 (ip), vehicle: saline with Tween-80
[4] = dose: 50.0 mg/kg/injection, schedule: Q01DX009 (ip), vehicle: Klucel (hydroxypropylcellulose) (HPC)
[5] = dose: 100.0 mg/kg/injection, schedule: Q01DX009 (ip), vehicle: Klucel (hydroxypropylcellulose) (HPC)
[6] = dose: 200.0 mg/kg/injection, schedule: Q01DX009 (ip), vehicle: Klucel (hydroxypropylcellulose) (HPC)
[7] = dose: 12.5 mg/kg/injection, schedule: Q01DX009 (ip), vehicle: water
[8] = dose: 25.0 mg/kg/injection, schedule: Q01DX009 (ip), vehicle: water
[9] = dose: 50.0 mg/kg/injection, schedule: Q01DX009 (ip), vehicle: water
[10] = dose: 100.0 mg/kg/injection, schedule: Q01DX009 (ip), vehicle: water
[11] = dose: 50.0 mg/kg/injection, schedule: Q01DX009 (ip), vehicle: saline
[12] = dose: 50.0 mg/kg/injection, schedule: Q01DX009 (ip), vehicle: saline with Tween-80
[13] = dose: 100.0 mg/kg/injection, schedule: Q01DX009 (ip), vehicle: saline with Tween-80
[14] = dose: 200.0 mg/kg/injection, schedule: Q01DX009 (ip), vehicle: saline with Tween-80
[15] = dose: 25.0 mg/kg/injection, schedule: Q01DX009 (ip), vehicle: saline with Tween-80
[16] = dose: 50.0 mg/kg/injection, schedule: Q01DX005 (ip), vehicle: Klucel (hydroxypropylcellulose) (HPC)
[17] = dose: 100.0 mg/kg/injection, schedule: Q01DX005 (ip), vehicle: Klucel (hydroxypropylcellulose) (HPC)
[18] = dose: 200.0 mg/kg/injection, schedule: Q01DX005 (ip), vehicle: Klucel (hydroxypropylcellulose) (HPC)
[19] = dose: 100.0 mg/kg/injection, schedule: Q01DX009 (ip), vehicle: saline
[20] = dose: 200.0 mg/kg/injection, schedule: Q01DX009 (ip), vehicle: saline
[21] = dose: 50.0 mg/kg/injection, schedule: Q01DX005 (ip), vehicle: saline with Tween-80
[22] = dose: 100.0 mg/kg/injection, schedule: Q01DX005 (ip), vehicle: saline with Tween-80

Measured: T/C

O=C(/C=C/C(=O)Oc1cc(Cl)c(Cl)cc1Cl)Oc1cc(Cl)c(Cl)cc1Cl
inactive: [1] 96 % of control | [2] 88 % of control | [3] 97 % of control

O=C(O)C[P+](Cc1ccccc1)(c1ccccc1)c1ccccc1
inactive: dose: 25.0 mg/kg/injection, schedule: Q01DX009 (ip), vehicle: Klucel (hydroxypropylcellulose) (HPC) 97 % of control | [4] 102 % of control and 113 % of control | [5] 101 % of control and 103 % of control | [6] 95 % of control

O=C(N/N=C/c1cc(Cl)cc(Cl)c1[O-])c1ccccc1.O=C(N/N=C/c1cc(Cl)cc(Cl)c1[O-])c1ccccc1.[Mn+2]
inactive: dose: 100.0 mg/kg/injection, schedule: Q01DX001 (ip), vehicle: saline with Tween-80 98 % of control | dose: 200.0 mg/kg/injection, schedule: Q01DX001 (ip), vehicle: saline with Tween-80 99 % of control | dose: 400.0 mg/kg/injection, schedule: Q01DX001 (ip), vehicle: saline with Tween-80 105 % of control

CS(=O)(=O)C(=Cc1ccccc1Cl)S(C)(=O)=O
inactive: dose: 50.0 mg/kg/injection, schedule: Q04DX003 (ip), vehicle: Klucel (hydroxypropylcellulose) (HPC) 102 % of control | dose: 100.0 mg/kg/injection, schedule: Q04DX003 (ip), vehicle: Klucel (hydroxypropylcellulose) (HPC) 107 % of control | dose: 200.0 mg/kg/injection, schedule: Q04DX003 (ip), vehicle: Klucel (hydroxypropylcellulose) (HPC) 108 % of control

COC(=O)C1=C/C=C\CN(C=O)/C=C\1C(=O)OC
inactive: dose: 100.0 mg/kg/injection, schedule: Q01DX001 (ip), vehicle: alcohol 101 % of control | dose: 200.0 mg/kg/injection, schedule: Q01DX001 (ip), vehicle: alcohol 92 % of control | dose: 400.0 mg/kg/injection, schedule: Q01DX001 (ip), vehicle: alcohol 101 % of control

CCCCCC(CN(C)C)C(=O)CC(SCC)c1ccc(Cl)c(Cl)c1 (configuration not stated)
inactive: dose: 6.25 mg/kg/injection, schedule: Q01DX009 (ip), vehicle: water 102 % of control and 113 % of control | [7] 107 % of control and 109 % of control and 111 % of control | [8] 107 % of control and 120 % of control and 95 % of control | [9] 101 % of control and 112 % of control and 115 % of control | [10] 108 % of control

CNC(=O)C(NC(=O)C(NC(=O)c1c2nc3c(C(=O)NC(C(=O)NC(C(=O)NC)C(C)C)C(C)O)ccc(C)c3oc-2c(C)c(=O)c1N)C(C)O)C(C)C (configuration not stated)
inactive: dose: 0.05 mg/kg/injection, schedule: Q01DX009 (ip), vehicle: water 101 % of control | dose: 0.1 mg/kg/injection, schedule: Q01DX009 (ip), vehicle: water 110 % of control | dose: 0.2 mg/kg/injection, schedule: Q01DX009 (ip), vehicle: water 100 % of control | dose: 0.4 mg/kg/injection, schedule: Q01DX009 (ip), vehicle: water 99 % of control | dose: 0.8 mg/kg/injection, schedule: Q01DX009 (ip), vehicle: water 108 % of control | dose: 1.6 mg/kg/injection, schedule: Q01DX009 (ip), vehicle: water 99 % of control and 90 % of control | dose: 3.2 mg/kg/injection, schedule: Q01DX009 (ip), vehicle: water 97 % of control | dose: 6.4 mg/kg/injection, schedule: Q01DX009 (ip), vehicle: water 97 % of control | dose: 12.8 mg/kg/injection, schedule: Q01DX009 (ip), vehicle: water 99 % of control

CC#CCOCC1CO1 (configuration not stated)
inactive: dose: 14.6 mg/kg/injection, schedule: Q01DX009 (ip), vehicle: saline 100 % of control | dose: 22.0 mg/kg/injection, schedule: Q01DX009 (ip), vehicle: saline 109 % of control | dose: 33.0 mg/kg/injection, schedule: Q01DX009 (ip), vehicle: saline 118 % of control | [11] 118 % of control

Cc1ccnc(NS(=O)(=O)c2ccc(N=CC3C(=O)N(c4ccccc4)N(c4ccccc4)C3=O)cc2)n1
inactive: [4] 96 % of control | [6] 101 % of control

COc1cc(C2C3=C(CC(C)(C)CC3=O)Oc3cc4c(cc32)OCO4)cc(OC)c1OC (configuration not stated)
inactive: dose: 60.0 mg/kg/injection, schedule: Q01DX005 (ip), vehicle: saline with Tween-80 97 % of control | dose: 120.0 mg/kg/injection, schedule: Q01DX005 (ip), vehicle: saline with Tween-80 98 % of control

CC(=O)Nc1ccc(C(=O)/C=N\NC(N)=S)cc1
inactive: [12] 94 % of control | [13] 86 % of control | [14] 94 % of control

CCCCOCC1CO1 (configuration not stated)
inactive: [15] 100 % of control | [12] 100 % of control | [13] 95 % of control | [14] 90 % of control

CC(C)CC1CCCC12NC(=O)NC2=O (configuration not stated)
inactive: [16] 97 % of control | [17] 89 % of control | [18] 93 % of control

COCCCN(Cc1cc(OC)c(OC)c(OC)c1)C(=S)Nc1cccc(SC)c1
inactive: [11] 101 % of control | [19] 100 % of control | [20] 99 % of control

Cc1cc(CCO)n[nH]1
inactive: [11] 97 % of control | [19] 100 % of control | [20] 100 % of control

CC1=CCC(=O)O1
inactive: dose: 50.0 mg/kg/injection, schedule: Q01DX009 (ip), vehicle: suspension in saline 100 % of control | dose: 100.0 mg/kg/injection, schedule: Q01DX009 (ip), vehicle: suspension in saline 99 % of control and 88 % of control | dose: 200.0 mg/kg/injection, schedule: Q01DX009 (ip), vehicle: suspension in saline 101 % of control and 87 % of control | dose: 400.0 mg/kg/injection, schedule: Q01DX009 (ip), vehicle: suspension in saline 98 % of control and 101 % of control

CCOC(=O)c1ccc(NC(=O)Nc2nnc(C)c(C)n2)cc1
inactive: [4] 92 % of control | [5] 88 % of control | [6] 88 % of control

CS(=O)(=O)NC1CC(=O)N(Cc2ccccc2)C1=O (configuration not stated)
inactive: dose: 25.0 mg/kg/injection, schedule: Q01DX005 (ip), vehicle: saline 91 % of control | dose: 50.0 mg/kg/injection, schedule: Q01DX005 (ip), vehicle: saline 99 % of control | dose: 100.0 mg/kg/injection, schedule: Q01DX005 (ip), vehicle: saline 105 % of control

COc1ccc2cc3cnccc3cc2c1OC
inactive: [7] 99 % of control | [8] 97 % of control | [9] 94 % of control | [10] 102 % of control | dose: 200.0 mg/kg/injection, schedule: Q01DX009 (ip), vehicle: water 96 % of control

CCOC(=O)CSc1cc(O)c2ccccc2c1N=Nc1ccc(C(=O)O)cc1
inactive: dose: 12.5 mg/kg/injection, schedule: Q01DX005 (ip), vehicle: saline with Tween-80 94 % of control | dose: 25.0 mg/kg/injection, schedule: Q01DX005 (ip), vehicle: saline with Tween-80 88 % of control | [21] 88 % of control | [22] 86 % of control | dose: 200.0 mg/kg/injection, schedule: Q01DX005 (ip), vehicle: saline with Tween-80 93 % of control

O=c1c2ccccc2sc2cccc(Sc3ccccc3)c12
inactive: [13] 95 % of control | [1] 95 % of control | [2] 90 % of control | [3] 90 % of control

CC1/C(=N/O)C(=O)c2ccccc21 (configuration not stated)
inactive: dose: 12.5 mg/kg/injection, schedule: Q01DX009 (ip), vehicle: saline with Tween-80 100 % of control | [15] 95 % of control | [12] 100 % of control

C[S+](C)CCCNC(=O)c1csc(-c2csc(-c3ccccc3)n2)n1
inactive: dose: 6.25 mg/kg/injection, schedule: Q01DX005 (ip), vehicle: water 100 % of control | dose: 12.5 mg/kg/injection, schedule: Q01DX005 (ip), vehicle: water 107 % of control | dose: 25.0 mg/kg/injection, schedule: Q01DX005 (ip), vehicle: water 106 % of control

CCOC(=O)C1=C(N)C2CC(C)=C(C)CN2C1 (configuration not stated)
inactive: [21] 98 % of control | [22] 100 % of control

NC(CS)C(=O)[O][Sn]([O]C(=O)C(N)CS)([O]C(=O)C(N)CS)[O]C(=O)C(N)CS (configuration not stated)
inactive: [16] 99 % of control | [17] 108 % of control | [18] 89 % of control

C/C(CC/C(C)=N/N=C(\N)c1ccccn1)=N\N=C(/N)c1ccccn1
inactive: [4] 99 % of control | [5] 98 % of control | [6] 99 % of control
